Values quoted from earlier work as cited in patent publication US10695437B2, “Polycomplexes of poly-lysine compounds for preventing and/or combatting amyotrophic lateral sclerosis” (GEMAC, priority 2016, dated 2020).

Tested on: ALS
Conditions: ALS patients

Nc1nc2ccc(OC(F)(F)F)cc2s1 [Riluzole]
Side effects: numerous side effects (liver toxicity)
